The target of one data set is Cholinesterase (Mus musculus, UniProt Q03311).
Data set [1] addresses T1, 5-hydroxytryptamine receptor 1A (Homo sapiens, UniProt P08908).
T1 sequence (P08908 whole entry): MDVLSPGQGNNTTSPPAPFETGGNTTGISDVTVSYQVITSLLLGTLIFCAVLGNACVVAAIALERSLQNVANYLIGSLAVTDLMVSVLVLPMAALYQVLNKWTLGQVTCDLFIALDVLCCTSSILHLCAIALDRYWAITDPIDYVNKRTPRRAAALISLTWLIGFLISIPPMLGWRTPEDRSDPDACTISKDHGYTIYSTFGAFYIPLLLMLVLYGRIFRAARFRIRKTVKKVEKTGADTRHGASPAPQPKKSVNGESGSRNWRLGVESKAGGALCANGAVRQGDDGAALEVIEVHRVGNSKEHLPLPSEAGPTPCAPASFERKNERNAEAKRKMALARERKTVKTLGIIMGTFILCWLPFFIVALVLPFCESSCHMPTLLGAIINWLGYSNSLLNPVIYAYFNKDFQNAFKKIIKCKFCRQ
Description: Agonist activity at human 5-HT1A receptor expressed in HEK293 cells incubated for 60 mins by Eu-cAMP tracer based LANCE ultra cAMP assay

The target of another data set is T2, Acetylcholinesterase (Mus musculus, UniProt P21836).
T2 sequence (P21836 whole entry): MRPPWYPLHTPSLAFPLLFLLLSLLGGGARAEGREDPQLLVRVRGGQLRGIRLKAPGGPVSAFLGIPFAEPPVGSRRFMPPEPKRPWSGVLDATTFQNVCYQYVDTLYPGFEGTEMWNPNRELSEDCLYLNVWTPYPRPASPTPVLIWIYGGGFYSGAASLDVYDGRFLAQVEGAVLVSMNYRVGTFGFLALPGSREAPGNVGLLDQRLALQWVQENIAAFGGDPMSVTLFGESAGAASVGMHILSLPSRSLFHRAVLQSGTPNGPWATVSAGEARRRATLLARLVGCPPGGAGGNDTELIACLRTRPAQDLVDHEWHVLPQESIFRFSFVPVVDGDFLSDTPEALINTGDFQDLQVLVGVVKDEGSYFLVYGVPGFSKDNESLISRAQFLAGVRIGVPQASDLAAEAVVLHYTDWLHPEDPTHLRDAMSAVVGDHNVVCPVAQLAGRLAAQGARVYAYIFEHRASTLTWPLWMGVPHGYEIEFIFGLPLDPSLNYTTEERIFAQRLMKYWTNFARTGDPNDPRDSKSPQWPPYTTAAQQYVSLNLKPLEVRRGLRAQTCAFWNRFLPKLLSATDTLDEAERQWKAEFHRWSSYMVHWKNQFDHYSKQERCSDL
As to the kind of experiment: biochemical.

Data set [2] addresses Sodium-dependent serotonin transporter (Homo sapiens, UniProt P31645). It counts as cell-based, HEK293.
Another data set is described as follows: in vitro. Particulars: PAMPA. In general terms: The PAMPA barrier holds no transporters, so it reflects passive diffusion.

Where only a bound is given, the exact number is not on record here.

Chain of Cholinesterase (Q03311 whole entry): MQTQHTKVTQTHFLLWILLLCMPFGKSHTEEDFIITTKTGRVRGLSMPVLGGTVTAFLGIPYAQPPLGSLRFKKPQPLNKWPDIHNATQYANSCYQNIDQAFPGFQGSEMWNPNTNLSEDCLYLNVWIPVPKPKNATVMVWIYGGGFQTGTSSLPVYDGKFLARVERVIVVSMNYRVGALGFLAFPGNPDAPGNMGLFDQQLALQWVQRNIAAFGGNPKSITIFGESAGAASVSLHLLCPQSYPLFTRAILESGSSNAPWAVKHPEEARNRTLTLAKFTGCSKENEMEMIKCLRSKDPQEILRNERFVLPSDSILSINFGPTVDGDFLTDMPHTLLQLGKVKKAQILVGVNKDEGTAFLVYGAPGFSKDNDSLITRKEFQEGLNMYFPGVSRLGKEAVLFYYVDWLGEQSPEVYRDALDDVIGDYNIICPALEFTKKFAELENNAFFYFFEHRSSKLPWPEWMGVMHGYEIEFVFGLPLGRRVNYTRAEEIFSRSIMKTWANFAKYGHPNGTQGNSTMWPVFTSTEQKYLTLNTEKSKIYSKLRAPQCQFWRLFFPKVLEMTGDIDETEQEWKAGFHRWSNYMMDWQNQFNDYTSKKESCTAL
Chain of Sodium-dependent serotonin transporter (P31645 whole entry, the tested form may be a part): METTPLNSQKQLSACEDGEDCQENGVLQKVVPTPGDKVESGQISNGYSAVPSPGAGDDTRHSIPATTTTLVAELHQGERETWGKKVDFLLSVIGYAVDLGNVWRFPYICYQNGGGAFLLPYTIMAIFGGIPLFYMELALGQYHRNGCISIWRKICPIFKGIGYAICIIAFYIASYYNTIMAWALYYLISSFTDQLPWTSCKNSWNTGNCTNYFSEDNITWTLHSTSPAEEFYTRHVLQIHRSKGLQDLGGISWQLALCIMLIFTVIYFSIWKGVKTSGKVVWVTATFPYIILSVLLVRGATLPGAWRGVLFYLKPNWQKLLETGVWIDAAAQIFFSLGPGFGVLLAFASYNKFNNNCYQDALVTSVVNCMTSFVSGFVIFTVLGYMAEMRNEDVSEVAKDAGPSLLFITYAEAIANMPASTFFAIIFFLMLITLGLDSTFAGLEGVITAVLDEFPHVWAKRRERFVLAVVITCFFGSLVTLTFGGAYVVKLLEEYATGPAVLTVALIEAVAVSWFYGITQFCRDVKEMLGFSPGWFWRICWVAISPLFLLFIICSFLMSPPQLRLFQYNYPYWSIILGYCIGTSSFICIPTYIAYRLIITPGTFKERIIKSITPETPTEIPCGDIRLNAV
Description for Acetylcholinesterase: Inhibition of AChE in mouse cortical homogenate using acetylthiocholine iodide as substrate incubated for 20 mins by Ellman's method
Description for in vitro: Permeability of compound by PAMPA-BBB assay

As to `N#Cc1ccc2[nH]cc(CCCCN3CCN(c4cccc5c4C(=O)C(CC4CCN(Cc6ccccc6)CC4)C5)CC3)c2c1` (stereo not drawn), the results for the IC50 against Cholinesterase and on Acetylcholinesterase were 183 nM and 709 nM, respectively. The EC50 in data set [1] was 36 nM.
For `N#Cc1ccc2[nH]cc(CCCCN3CCN(c4ccc(C(=O)CCC5CCN(CC6CCCC6)CC5)cc4)CC3)c2c1` the same measures were 1760 nM, 40.4 nM and 49.8 nM.
Consider `O=C(CCC1CCN(Cc2ccccc2)CC1)c1ccc(N2CCN(CCCCc3c[nH]c4ccc(F)cc34)CC2)cc1`, for which the IC50 in data set [2] stood at 114 nM; on Cholinesterase, 1470 nM; at Acetylcholinesterase it was 2.43 nM.
With `N#Cc1ccc2[nH]cc(CCCCN3CCN(c4ccccc4C(=O)CCC4CCN(Cc5ccccc5)CC4)CC3)c2c1`, the IC50 came to 351 nM against Cholinesterase and 2520 nM at Acetylcholinesterase.
`N#Cc1ccc2[nH]cc(CN3CCN(c4ccc(C(=O)CCC5CCN(Cc6ccoc6)CC5)cc4)CC3)c2c1`: the IC50 was determined as 1400 nM at Cholinesterase and 10.6 nM on Acetylcholinesterase. Also, the concentration giving a half-maximal response (EC50) in data set [1] was more than 1000 nM. The compound further gave a Papp in the data set “in vitro” of 5.56 ×10⁻⁶ cm/s.
Turning to `N#Cc1ccc2[nH]cc(CCCCN3CCN(c4ccc(C(=O)CCC5CCN(CC6CC6)CC5)cc4)CC3)c2c1`, the values for the IC50 against Cholinesterase and against Acetylcholinesterase were 743 nM and 366 nM, respectively. The EC50 in data set [1] amounted to 9.1 nM.
`N#Cc1ccc2[nH]cc(CCCN3CCN(c4ccc(C(=O)CCC5CCN(Cc6cccnc6)CC5)cc4)CC3)c2c1`: the figures for the IC50 against Cholinesterase and against Acetylcholinesterase were 2010 nM and 6.41 nM, respectively.
On to `COc1ccc2[nH]cc(CCCCN3CCN(c4ccc(C(=O)CCC5CCN(Cc6ccccc6)CC5)cc4)CC3)c2c1`, for which the IC50 in data set [2] was found to be 76.5 nM; against Cholinesterase, 687 nM; at Acetylcholinesterase, 2.42 nM.
Regarding `N#Cc1ccc2[nH]cc(CCN3CCN(c4ccc(C(=O)CCC5CCN(Cc6cccnc6)CC5)cc4)CC3)c2c1`, the IC50 came to 6750 nM at Cholinesterase and 7.7 nM against Acetylcholinesterase. The compound further registered an EC50 in data set [1] of 547 nM. The Papp in “in vitro” was 2.58 ×10⁻⁶ cm/s.
Consider `O=C(CCC1CCN(Cc2ccccc2)CC1)c1ccc(N2CCN(CCCCc3c[nH]c4ccc(Cl)cc34)CC2)cc1`, for which the IC50 in data set [2] amounted to 159 nM; at Cholinesterase, 2720 nM; on Acetylcholinesterase, 3.52 nM.
For `N#Cc1ccc2[nH]cc(CCN3CCN(c4ccc(C(=O)CCC5CCN(Cc6ccccc6)CC5)cc4)CC3)c2c1`, in that order: 32.3 nM, 3000 nM and 5.04 nM.
Turning to `N#Cc1ccc2[nH]cc(CCN3CCN(c4ccc(C(=O)CCC5CCN(Cc6cc[nH]c6)CC5)cc4)CC3)c2c1`, the IC50 was determined as 8.41 nM in data set [2], 3570 nM on Cholinesterase and 3.54 nM against Acetylcholinesterase. Also, the EC50 in data set [1] was more than 1000 nM. Moreover, the Papp in the data set “in vitro” is 3.15 ×10⁻⁶ cm/s.
As to `N#Cc1ccc2[nH]cc(CCCN3CCN(c4ccc(C(=O)CCC5CCN(Cc6ccoc6)CC5)cc4)CC3)c2c1`, the concentration for half-maximal inhibition (IC50) on Cholinesterase is 1340 nM; against Acetylcholinesterase it was 9.61 nM. A half-maximal effect in data set [1] (EC50) was put at 29 nM. This compound also showed a Papp in “in vitro” of 5.17 ×10⁻⁶ cm/s.
Consider `N#Cc1ccc2[nH]cc(CCCN3CCN(c4ccc(C(=O)CCC5CCN(Cc6ccsc6)CC5)cc4)CC3)c2c1`, for which the figures for the IC50 (in data set [2]; against Cholinesterase; against Acetylcholinesterase) were 41.1 nM, 1200 nM and 1.85 nM, respectively.
On to `N#Cc1ccc2[nH]cc(CCCCN3CCN(c4cccc(C(=O)CCC5CCN(Cc6ccccc6)CC5)c4)CC3)c2c1`, for which the IC50 was 1000 nM at Cholinesterase and 37.9 nM at Acetylcholinesterase.
Regarding `CCN1CCC(CCC(=O)c2ccc(N3CCN(CCCCc4c[nH]c5ccc(C#N)cc45)CC3)cc2)CC1`, the IC50 came to 2380 nM at Cholinesterase and 393 nM at Acetylcholinesterase. Besides, the EC50 in data set [1] turned out to be 9 nM.
`N#Cc1ccc2[nH]cc(CCCCN3CCN(c4ccc(C(=O)CCC5CCN(Cc6cccc(F)c6)CC5)cc4)CC3)c2c1`: the figures for the IC50 at Cholinesterase and on Acetylcholinesterase were 11300 nM and 10.9 nM, respectively.
With `N#Cc1ccc2[nH]cc(CCCCN3CCN(c4ccc(C(=O)CCC5CCN(Cc6ccc7ccccc7c6)CC5)cc4)CC3)c2c1`, the EC50 in data set [1] was more than 1000 nM.
For `N#Cc1ccc2[nH]cc(CCCCN3CCN(c4ccc5c(c4)C(=O)C(CC4CCN(Cc6ccccc6)CC4)C5)CC3)c2c1` (stereo not drawn), the IC50 against Cholinesterase is 325 nM; against Acetylcholinesterase, 37.4 nM.
For `N#Cc1ccc2[nH]cc(CCCCN3CCN(c4ccc(C(=O)CCC5CCN(CC6CCC6)CC5)cc4)CC3)c2c1` the same measures were 1320 nM and 249 nM.
For `N#Cc1ccc2[nH]cc(CCN3CCN(c4ccc(C(=O)CCC5CCN(Cc6ccoc6)CC5)cc4)CC3)c2c1`, in that order: 2840 nM and 12.3 nM.
In turn, `C#CCN1CCC(CCC(=O)c2ccc(N3CCN(CCCCc4c[nH]c5ccc(C#N)cc45)CC3)cc2)CC1` yielded an EC50 in data set [1] of 29 nM. Also, half-maximal inhibition against Acetylcholinesterase (IC50) was put at 1140 nM.
In the case of `O=C(CCC1CCN(Cc2ccccc2)CC1)c1ccc(N2CCN(CCCCc3c[nH]c4ccccc34)CC2)cc1`, the results for the IC50 (in data set [2]; against Cholinesterase; on Acetylcholinesterase) were 285 nM, 986 nM and 1.51 nM, respectively.
With `N#Cc1ccc2c(CCCCN3CCN(c4ccc(C(=O)CCC5CCN(Cc6ccccc6)CC5)cc4)CC3)c[nH]c2c1`, the IC50 on Cholinesterase worked out at 2640 nM; at Acetylcholinesterase it was 3.71 nM. Further, the EC50 in data set [1] is more than 1000 nM.
For `O=C(CCC1CCN(Cc2ccccc2)CC1)c1ccc(N2CCN(CCCCc3c[nH]c4cc(Cl)c(Cl)cc34)CC2)cc1`, in that order: 5810 nM, 11.2 nM and more than 1000 nM.
`CCCCN1CCC(CCC(=O)c2ccc(N3CCN(CCCCc4c[nH]c5ccc(C#N)cc45)CC3)cc2)CC1`: the IC50 against Cholinesterase is 1910 nM; against Acetylcholinesterase it was 124 nM.
With `C=CCN1CCC(CCC(=O)c2ccc(N3CCN(CCCCc4c[nH]c5ccc(C#N)cc45)CC3)cc2)CC1`, the half-inhibitory concentration (IC50) was determined as 1660 nM against Cholinesterase and 267 nM on Acetylcholinesterase. In data set [1], this compound registered an EC50 of 8.6 nM.
Consider `N#Cc1ccc2[nH]cc(CCCCN3CCN(c4ccc5c(c4)C/C(=C\C4CCN(Cc6ccccc6)CC4)C5=O)CC3)c2c1`, for which the IC50 against Cholinesterase came to 4950 nM; against Acetylcholinesterase, 30.7 nM.
On to `N#Cc1ccc2[nH]cc(CCCCN3CCN(c4ccc(C(=O)CCC5CCN(Cc6cccc(Cl)c6)CC5)cc4)CC3)c2c1`, for which the IC50 is 15300 nM on Cholinesterase and 27 nM against Acetylcholinesterase. This compound displayed an EC50 in data set [1] of 203 nM.
For the compound `N#Cc1ccc2[nH]cc(CCCCN3CCN(c4ccc(C(=O)CCC5CCN(CC6CCCCC6)CC5)cc4)CC3)c2c1`, the IC50 at Cholinesterase was 2830 nM; on Acetylcholinesterase, 76.5 nM.
On to `COC(=O)c1ccc2[nH]cc(CCCCN3CCN(c4ccc(C(=O)CCC5CCN(Cc6ccccc6)CC5)cc4)CC3)c2c1`, for which the IC50 in data set [2] was more than 1000 nM; against Cholinesterase it was 336 nM; against Acetylcholinesterase, 3.28 nM.
For `N#Cc1ccc2[nH]cc(CCCCN3CCN(c4ccc5c(c4)CC(CC4CCN(Cc6ccccc6)CC4)C5=O)CC3)c2c1` (stereo not drawn) the same measures were 36 nM, 1670 nM and 5.84 nM.
For `N#Cc1ccc2[nH]cc(CCCN3CCN(c4ccc(C(=O)CCC5CCN(Cc6cc[nH]c6)CC5)cc4)CC3)c2c1`, in that order: 14.9 nM, 1130 nM and 3.27 nM.
`N#Cc1ccc2[nH]cc(CCCCN3CCN(c4ccc(C(=O)CCC5CCN(Cc6ccccc6F)CC5)cc4)CC3)c2c1`: the figures for the IC50 at Cholinesterase and against Acetylcholinesterase were 2510 nM and 12 nM, respectively.
Consider `N#Cc1ccc2[nH]cc(CCCCN3CCN(c4ccc(C(=O)CCC5CCN(Cc6cccc(C(F)(F)F)c6)CC5)cc4)CC3)c2c1`, for which the EC50 in data set [1] is 323 nM. The compound also showed an IC50 at Acetylcholinesterase of 294 nM.
Take `O=C(CCC1CCN(Cc2ccccc2)CC1)c1ccc(N2CCN(CCCCc3c[nH]c4ccc(Br)cc34)CC2)cc1`: the half-maximal inhibitory concentration (IC50) against Cholinesterase is 3840 nM; at Acetylcholinesterase, 7.75 nM.
For `Cc1cccc(CN2CCC(CCC(=O)c3ccc(N4CCN(CCCCc5c[nH]c6ccc(C#N)cc56)CC4)cc3)CC2)c1`, in that order: 13400 nM and 18.3 nM.
In the case of `N#Cc1ccc2[nH]cc(CN3CCN(c4ccc(C(=O)CCC5CCN(Cc6cccnc6)CC5)cc4)CC3)c2c1`, the IC50 is 5850 nM on Cholinesterase and 9.97 nM against Acetylcholinesterase. Besides, the EC50 in data set [1] is more than 1000 nM. Besides, the Papp in the data set “in vitro” amounted to 2.86 ×10⁻⁶ cm/s.
As for `N#Cc1ccc2[nH]cc(CCCCN3CCN(c4ccc(C(=O)CCC5CCN(Cc6cccc(Br)c6)CC5)cc4)CC3)c2c1`, the IC50 against Acetylcholinesterase is 91.5 nM.
`N#Cc1ccc2[nH]cc(CCCCN3CCN(c4ccc(C(=O)CCC5CCN(Cc6ccc(F)cc6)CC5)cc4)CC3)c2c1`: the IC50 was determined as 2680 nM on Cholinesterase and 32.4 nM against Acetylcholinesterase. In addition, it took 162 nM to reach a half-maximal effect in data set [1] (EC50).
In turn, `COc1cccc(CN2CCC(CCC(=O)c3ccc(N4CCN(CCCCc5c[nH]c6ccc(C#N)cc56)CC4)cc3)CC2)c1` registered a half-maximal inhibitory concentration (IC50) on Acetylcholinesterase of 644 nM.

The term IC50 denotes the concentration that inhibits the measured activity by half. Low values mean higher potency, high ones lower potency. One may read the EC50 as the concentration that produces a half-maximal response. A high value points to a need for much substance. One may read the Papp as the rate of passage across a membrane or cell layer, normalised by area and donor concentration.

The record behind these values is ChEMBL document CHEMBL5046241, “The novel therapeutic strategy of vilazodone-donepezil chimeras as potent triple-target ligands for the potential treatment of Alzheimer's disease with comorbid depression” (Eur J Med Chem, 2022).
